Source: patent publication US20240041042A1, “1-(PYRIDYL)-5-AZINYLPYRAZOLE DERIVATIVES, AND THEIR USE FOR CONTROL OF UNDESIRED PLANT GROWTH” (Bayer Aktiengesellschaft, priority 2020, published 2024)
Where two headings read alike, the source gives them in different places.

Experiments:
Assay type in all cases: in vivo
[1] = system: Setaria viridis (SETVI); test: Post-emergence herbicidal action against SETVI
Summary of the method: (§1)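 Doses of 320 g/ha or lower, suffixes a, b and c marking different dosages, were applied post-emergence at the one-leaf stage in 600 l/ha water with 0.5% additive. Damage was assessed visually after about 3 weeks in the greenhouse.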

[2] = system: Matricaria inodora (MATIN); test: Post-emergence herbicidal action against MATIN
Summary of the method: as §1

[3] = system: Avena fatua (AVEFA); test: Post-emergence herbicidal action against AVEFA; settings: visual rating about 3 weeks after treatment
Summary of the method: as §1

[4] = system: Polygonum convolvulus (POLCO); test: Post-emergence herbicidal action against POLCO
Summary of the method: as §1

[5] = system: Digitaria sanguinalis (DIGSA); test: Post-emergence herbicidal action against DIGSA; settings: visual rating about 3 weeks after treatment
Summary of the method: as §1

[6] = system: Lolium rigidum (LOLRI); test: Post-emergence herbicidal action against LOLRI
Summary of the method: as §1

[7] = system: Viola tricolor (VIOTR); test: Post-emergence herbicidal action against VIOTR
Summary of the method: as §1

[8] = system: Echinochloa crus-galli (ECHCG); test: Post-emergence herbicidal action against ECHCG
Summary of the method: as §1

[9] = system: Amaranthus retroflexus (AMARE); test: Post-emergence herbicidal action against AMARE
Summary of the method: as §1

[10] = system: Verconica persica (VERPE); test: Post-emergence herbicidal action against VERPE
Summary of the method: as §1

[11] = system: Abutilon theophrasti (ABUTH); test: Post-emergence herbicidal action against ABUTH; settings: visual rating about 3 weeks after treatment vs untreated controls (100% = plants have died, 0% = like control plants)
Summary of the method: as §1

[12] = system: Alopecurus myosuroides (ALOMY); test: Post-emergence herbicidal action against ALOMY; settings: visual rating about 3 weeks after treatment vs untreated controls (100% = plants have died, 0% = like control plants)
Summary of the method: as §1

[13] = system: Pharbitis purpurea (PHBPU); test: Post-emergence herbicidal action against PHBPU
Summary of the method: as §1

[14] = system: Zea mays (ZEAMX); settings: for Post-emergence action against ZEAMX in % (crop plant compatibility): 20 g/ha, effect in comparison to untreated controls; for Post-emergence action against ZEAMX in %: crop plant compatibility, effect vs untreated controls
Summary of the method: (§2)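 Test crops were treated 2 to 3 weeks after sowing, once they reached one leaf, by spraying compound in water with 0.5% additive at 600 l/ha. Visual scoring compared them with untreated controls roughly 3 weeks on, and appendices a, b and c denote different doses.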

[15] = system: Oryza sativa (ORYSA); settings: crop plant compatibility
Summary of the method: as §2

[16] = system: Triticum aestivum (TRZAS); settings: crop plant compatibility, effect vs untreated controls
Summary of the method: as §2

[17] = 320 g/ha, visual rating about 3 weeks after treatment
[18] = 20 g/ha, effect vs untreated controls
[19] = 80 g/ha, effect in comparison to untreated controls
[20] = 80 g/ha, visual rating about 3 weeks after treatment vs untreated controls (100% = plants have died, 0% = like control plants)

Structure (SMILES)	Post-emergence action against SETVI in % ([1]; dosage 80 g/ha) [%]	Post-emergence action against SETVI in % ([1]; dosage 320 g/ha) [%]	Post-emergence action against MATIN in % ([2]; dosage 320 g/ha) [%]	Post-emergence action against AVEFA in % ([3]; 320 g/ha) [%]	Post-emergence action against POLCO in % ([4]; dosage 320 g/ha) [%]	Post-emergence action against DIGSA in % ([5]; 320 g/ha) [%]	Post-emergence action against LOLRI in % ([6]; dosage 80 g/ha) [%]	Post-emergence action against LOLRI in % ([6]; dosage 320 g/ha) [%]	Post-emergence action against VIOTR in % ([7]; 80 g/ha) [%]	Post-emergence action against VIOTR in % ([7]; 320 g/ha) [%]	Post-emergence action against ECHCG in % ([8]; dosage 80 g/ha) [%]	Post-emergence action against ECHCG in % ([8]; dosage 320 g/ha) [%]	Post-emergence action against AMARE in % [9, 17] [%]	Post-emergence action against VERPE in % ([10]; 320 g/ha, VERPE) [%]	Post-emergence action against VERPE in % ([10]; dosage 80 g/ha) [%]	Post-emergence action against ABUTH in % ([11]; 320 g/ha) [%]	Post-emergence action against ALOMY in % ([12]; 320 g/ha) [%]	Post-emergence action against PHBPU in % ([13]; dosage 320 g/ha) [%]	Post-emergence action against ZEAMX in % (crop plant compatibility) [14] [%]	Post-emergence action against ZEAMX in % ([14]; 80 g/ha) [%]	also measured
CC(C)=NOC(=O)COc1nn(-c2ncccc2F)c(-c2ccc(F)nc2)c1C1CC1 [Example I-366]	90	90	80	90	80	90	90	90	80	90	90	90	80	90	80	90	90	80	10		Post-emergence action against AVEFA in % ([3]; 80 g/ha): 90%; Post-emergence action against DIGSA in % ([5]; 80 g/ha): 80%; Post-emergence action against ABUTH in % ([11]; 80 g/ha): 80%; Post-emergence action against PHBPU in % ([13]; dosage 80 g/ha): 80%; Post-emergence action against ORYSA in % [15, 18]: 0%; Post-emergence action against ORYSA in % [15, 19]: 20%
COC(=O)CCOC(=O)COc1nn(-c2ccccn2)c(-c2ccc(F)nc2)c1C1CC1(F)F (stereo not shown) [Example I-248]									80	80				80				90	0	0	Post-emergence action against TRZAS in % ([16]; 20 g/ha): 0%; Post-emergence action against TRZAS in % ([16]; 80 g/ha): 0%
O=C(COc1nn(-c2ncccc2F)c(-c2ccc(F)nc2)c1C1CC1)OCC(F)(F)F [Example I-326]	90	90	80	90	90	90	90	90	90	90	90	90	90	90	90	80	90	90	0	0	Post-emergence action against AVEFA in % ([3]; 80 g/ha): 90%; Post-emergence action against POLCO in % ([4]; dosage 80 g/ha): 80%; Post-emergence action against DIGSA in % ([5]; 80 g/ha): 80%; Post-emergence action against AMARE in % [9, 20]: 90%; Post-emergence action against ABUTH in % ([11]; 80 g/ha): 80%; Post-emergence action against ALOMY in % ([12]; 80 g/ha): 90%; Post-emergence action against PHBPU in % ([13]; dosage 80 g/ha): 80%; Post-emergence action against ORYSA in % [15, 18]: 0%
CCOC(=O)COc1nn(-c2ccccn2)c(-c2ccc(F)nc2)c1C1CC1(F)F (stereo not shown) [Example I-387]																			0	0	Post-emergence action against ZEAMX in % ([14]; 320 g/ha): 0%; Post-emergence action against TRZAS in % ([16]; 20 g/ha): 0%; Post-emergence action against TRZAS in % ([16]; 80 g/ha): 0%; Post-emergence action against TRZAS in % ([16]; 320 g/ha): 0%
O=C(COc1nn(-c2ncccc2F)c(-c2ccc(F)nc2)c1C1CC1)OCC1CC1 [Example I-318]	90	90	80	90	90	90	90	90	80	90	90	90	90	90	90	80	90	90	0	0	Post-emergence action against MATIN in % ([2]; dosage 80 g/ha): 80%; Post-emergence action against AVEFA in % ([3]; 80 g/ha): 90%; Post-emergence action against POLCO in % ([4]; dosage 80 g/ha): 90%; Post-emergence action against DIGSA in % ([5]; 80 g/ha): 90%; Post-emergence action against AMARE in % [9, 20]: 90%; Post-emergence action against ABUTH in % ([11]; 80 g/ha): 80%; Post-emergence action against ALOMY in % ([12]; 80 g/ha): 90%; Post-emergence action against PHBPU in % ([13]; dosage 80 g/ha): 90%; Post-emergence action against ORYSA in % [15, 18]: 0%
O=C(COc1nn(-c2ncccc2F)c(-c2ccc(F)nc2)c1C1CC1)OCC1CCCO1 (stereo not shown) [Example I-274]	90	90	90	90	80	90	80	90	80	90	80	90	90	90	90	80	90	80	10	20	Post-emergence action against ORYSA in % [15, 18]: 0%
COCCOC(=O)COc1nn(-c2ncccc2F)c(-c2ccc(F)nc2)c1C1CC1 [Example I-314]	90	90	80	90	90	90	90	90	90	90	90	90	90	90	90	80	90	90	0	10	Post-emergence action against AVEFA in % ([3]; 80 g/ha): 90%; Post-emergence action against DIGSA in % ([5]; 80 g/ha): 90%; Post-emergence action against AMARE in % [9, 20]: 90%; Post-emergence action against ABUTH in % ([11]; 80 g/ha): 80%; Post-emergence action against ALOMY in % ([12]; 80 g/ha): 90%; Post-emergence action against PHBPU in % ([13]; dosage 80 g/ha): 90%; Post-emergence action against ORYSA in % [15, 18]: 0%; Post-emergence action against ORYSA in % [15, 19]: 20%
